Legend:
[1] = molecular target: T1, adenosine A1 receptors (Homo sapiens, UniProt P30542); experiment: Adenosine agonism indirectly by way of gene expression (luciferase test), A1 cells; assay type: cell-based; details: percent following prestimulation of adenylate cyclase with 1 μ molar forskolin (=100%), agonists give <100%
T1 construct: expressed in transfected cells; host or cells: CHO (Chinese Hamster Ovary)
T1 sequence (P30542 1-326): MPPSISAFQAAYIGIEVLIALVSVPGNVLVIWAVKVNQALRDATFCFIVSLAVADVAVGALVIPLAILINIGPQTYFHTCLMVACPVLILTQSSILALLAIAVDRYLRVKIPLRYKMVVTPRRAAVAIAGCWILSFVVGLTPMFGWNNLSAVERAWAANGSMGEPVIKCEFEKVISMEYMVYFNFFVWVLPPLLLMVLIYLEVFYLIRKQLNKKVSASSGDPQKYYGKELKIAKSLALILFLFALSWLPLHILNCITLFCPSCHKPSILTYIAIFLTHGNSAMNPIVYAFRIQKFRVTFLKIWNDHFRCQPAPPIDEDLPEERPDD
From the text: (§1) Cells of the CHO (Chinese Hamster Ovary) permanent cell line are transfected stably with the cDNA for the adenosine receptor subtypes A1, A2a and A2b. The adenosine A1 receptors are coupled to the adenylate cyclase by way of Gi proteins, while the adenosine A2a and A2b receptors are coupled by way of Gs proteins. In correspondence with this, the formation of cAMP in the cell is inhibited or stimulated, respectively. After that, expression of the luciferase is modulated by way of a cAMP-dependent promoter. The luciferase test is optimized, with the aim of high sensitivity and reproducibility, low variance and good suitability for implementation on a robot system, by varying several test parameters, such as cell density, duration of the growth phase and the test incubation, forskolin concentration and medium composition. The following test protocol is used for pharmacologically characterizing cells and for the robot-assisted substance test screening:
(§2) The stock cultures are grown, at 37° C. and under 5% CO2, in DMEM/F12 medium containing 10% FCS (foetal calf serum) and in each case split 1:10 after 2–3 days. The test cultures are seeded in 384-well plates at the rate of from 1 000 to 3 000 cells per well and grown at 37° C. for approx. 48 hours. […] After that, 35 μl of a solution which is composed of 50% lysis reagent (30 mM disodium hydrogenphosphate, 10% glycerol, 3% TritonX100, 25 mM TrisHCl, 2 mM dithiothreitol (DTT), pH 7.8) and 50% luciferase substrate solution (2.5 mM ATP, 0.5 mM luciferin, 0.1 mM coenzyme A, 10 mM tricine, 1.35 mM magnesium sulphate, 15 mM DTT, pH 7.8) are added to the test cultures, the plates are shaken for approx. 1 minute and the luciferase activity is measured using a camera system.
(§3) The table gives the % values of the corresponding reference stimulus. The measured values for the A2a and A2b receptors are values in percent of the maximum stimulation achieved by NECA; the measured values for the A1 receptor are values in percent following direct prestimulation of the adenylate cyclase with 1μ molar forskolin (corresponds to the 100% value).

[2] = molecular target: T2, adenosine A2a receptors (Homo sapiens, UniProt P29274); experiment: Adenosine agonism indirectly by way of gene expression (luciferase test), A2a cells; assay type: cell-based; details: percent of the maximum stimulation achieved by NECA
T2 construct: expressed in transfected cells; host or cells: CHO (Chinese Hamster Ovary)
From the text: as §1, §2, §3

[3] = molecular target: T3, adenosine A2b receptors (Homo sapiens, UniProt P29275); experiment: Adenosine agonism indirectly by way of gene expression (luciferase test), A2b cells; assay type: cell-based; details: percent of the maximum stimulation achieved by NECA
T3 construct: expressed in transfected cells; host or cells: CHO (Chinese Hamster Ovary)
T3 sequence (P29275 1-332): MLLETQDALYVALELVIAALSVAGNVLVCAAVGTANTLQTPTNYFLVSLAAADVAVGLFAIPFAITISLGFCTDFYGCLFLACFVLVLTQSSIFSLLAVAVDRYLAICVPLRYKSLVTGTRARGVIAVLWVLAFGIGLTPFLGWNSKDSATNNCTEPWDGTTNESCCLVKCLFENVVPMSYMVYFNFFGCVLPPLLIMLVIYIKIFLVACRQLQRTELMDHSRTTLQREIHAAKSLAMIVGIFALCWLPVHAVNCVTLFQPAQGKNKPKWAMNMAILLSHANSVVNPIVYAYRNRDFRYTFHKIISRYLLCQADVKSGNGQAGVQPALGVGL
From the text: as §1, §2, §3

[4] = Pharmacokinetic investigations, mouse; assay type: in vivo, mice; details: plasma, po, 1 mg/kg p.o., read-out: Bioavailability following oral administration
Method: (§4) Pharmacokinetic data were determined after administering various substances i.v. or p.o. as solutions to mice, rats and dogs. For this, blood samples were collected up to 24 hours after administration. The concentrations of the unaltered substance were determined by bioanalytical methods (HPLC or HPLC-MS) in the plasma samples which were obtained from the blood samples. Pharmacokinetic parameters were subsequently ascertained from the plasma concentration time courses which had been obtained in this way. The following Table 2 gives the bioavailability in the different species.

[5] = Pharmacokinetic investigations, rat; assay type: in vivo, rats; details: plasma, po, 1 mg/kg p.o., read-out: Bioavailability following oral administration
Method: as §4

[6] = Pharmacokinetic investigations, dog; assay type: in vivo, dogs; details: plasma, po, 1 mg/kg p.o., read-out: Bioavailability following oral administration
Method: as §4

T2 sequence (P29274 whole entry): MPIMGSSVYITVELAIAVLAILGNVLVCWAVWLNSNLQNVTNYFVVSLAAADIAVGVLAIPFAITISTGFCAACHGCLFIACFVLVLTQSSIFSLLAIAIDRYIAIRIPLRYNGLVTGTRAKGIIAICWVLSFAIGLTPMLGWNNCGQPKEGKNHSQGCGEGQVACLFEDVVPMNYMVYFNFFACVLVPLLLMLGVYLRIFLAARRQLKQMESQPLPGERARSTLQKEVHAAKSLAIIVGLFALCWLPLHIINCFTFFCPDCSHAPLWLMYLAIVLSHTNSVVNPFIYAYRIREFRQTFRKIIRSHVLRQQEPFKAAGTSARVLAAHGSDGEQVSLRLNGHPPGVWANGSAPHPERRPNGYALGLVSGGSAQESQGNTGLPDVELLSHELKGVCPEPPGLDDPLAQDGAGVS

Stimulation of adenosine receptors, A1, % of the reference stimulus ([1]; 0.3 nmol compound): 44%
Stimulation of adenosine receptors, A1, % of the reference stimulus ([1]; 1 nmol compound): 9%
Stimulation of adenosine receptors, A1, % of the reference stimulus ([1]; 10 nmol compound): 5%
Stimulation of adenosine receptors, A2a, % of the reference stimulus ([2]; 0.3 nmol compound): 1%
Stimulation of adenosine receptors, A2a, % of the reference stimulus ([2]; 1 nmol compound): 24%
Stimulation of adenosine receptors, A2a, % of the reference stimulus ([2]; 10 nmol compound): 57%
Stimulation of adenosine receptors, A2b, % of the reference stimulus ([3]; 0.3 nmol compound): 29%
Stimulation of adenosine receptors, A2b, % of the reference stimulus ([3]; 1 nmol compound): 64%
Stimulation of adenosine receptors, A2b, % of the reference stimulus ([3]; 10 nmol compound): 88%
bioavailability [4]: 22.1%
bioavailability [5]: 4.6%
bioavailability [6]: 48.2%
Structure (SMILES): CC(=O)Nc1ccc(-c2c(C#N)c(N)nc(SCc3ccccn3)c2C#N)cc1 [Example 1, N-(4-{2-Amino-3,5-dicyano-6-[(2-pyridinylmethyl)sulphanyl]-4-pyridinyl}-phenyl)acetamide]

Source: patent US7045631B2, “Substituted 2-thio-3, 5-dicyano-4-phenyl-6-aminopyridines and their use as adenosine receptor-selective ligands” (Bayer Aktiengesellschaft, priority 2001, dated 2006)
